Source: US7297694B2, “Pyridylfurans and pyrroles as Raf kinase inhibitors” (SmithKline Beechum P.L.C., priority 2001, dated 2007)

Tests used:
[1] = test system: Human diploid foreskin fibroblasts (HFF); experiment: XTT 72 hr Growth Inhibition (Assay 3), HFF; type: cell-based; conditions: Fibroblast, normal, B-Raf wt, Ras wt
Protocol: (§1) XTT 72 hr Growth Inhibition Protocol for Mammalian Cultured Cells (Assay 3)
(§2) Human diploid foreskin fibroblasts (HFF) or human colon carcinoma (Colo 201) cells were grown in Dulbecco's modified Eagle's medium (DMEM) (Invitrogen/Life Technologies) containing 10% fetal bovine serum (FBS) and the antibiotics penicillin (100 Units/ml) and streotomycin (100 micrograms/ml) (Invitrogen/Life Technologies). Growth was at 37° C. in humidified 5% CO2 incubators in 75 cm^2 plastic flasks. Cells were harvested using 0.25% trypsin/1 mM ethylenediaminetetraacetic acid (EDTA), resuspended in growth medium, and counted using a hemocytometer. Flat-bottomed 96-well plates were seeded with 2×10^3 cells/well in a volume of 200 ul from trypsinized exponentially growing cultures. To “blank” wells, growth medium was added with no additions. Cells were incubated overnight to permit attachment.
(§3) Next day, medium from wells that contained cells was replaced with 180 microliters of fresh medium. Appropriate dilutions of test compounds were added to the wells from stock soloutions of compound dissolved in dimethyl sulfoxide (DMSO); final DMSO concentration in all wells was 0.2%. […] Absorbance at 450 nm was then determined using a 96-well UV plate reader (Molecular Devices). Under these conditions, absorbance of untreated control cells at 450 nm was at least 1.0 optical density unit/ml. […]

[2] = test system: colon carcinoma (Colo 205); experiment: Methylene Blue Growth Inhibition Assay (Assay 2), Colo205; type: cell-based; conditions: Homo sapiens, Colorectal cancer, B-Raf V599E, Ras wt
human melanoma SKMEL3 = experiment: Methylene Blue Growth Inhibition Assay (Assay 2), SKMEL3; type: cell-based; conditions: SK-MEL3, B-Raf V599E, Ras wt
human melanoma SKMEL2 = experiment: Methylene Blue Growth Inhibition Assay (Assay 2), SKMEL2; type: cell-based; conditions: SK-MEL-2, B-Raf wt, [Q6IR]N-Ras
B-Raf = B-Raf (Homo sapiens, UniProt P15056); experiment: Fluorescence Anisotropy Kinase Binding Assay (Assay 1)
B-Raf, sequence (P15056 whole entry): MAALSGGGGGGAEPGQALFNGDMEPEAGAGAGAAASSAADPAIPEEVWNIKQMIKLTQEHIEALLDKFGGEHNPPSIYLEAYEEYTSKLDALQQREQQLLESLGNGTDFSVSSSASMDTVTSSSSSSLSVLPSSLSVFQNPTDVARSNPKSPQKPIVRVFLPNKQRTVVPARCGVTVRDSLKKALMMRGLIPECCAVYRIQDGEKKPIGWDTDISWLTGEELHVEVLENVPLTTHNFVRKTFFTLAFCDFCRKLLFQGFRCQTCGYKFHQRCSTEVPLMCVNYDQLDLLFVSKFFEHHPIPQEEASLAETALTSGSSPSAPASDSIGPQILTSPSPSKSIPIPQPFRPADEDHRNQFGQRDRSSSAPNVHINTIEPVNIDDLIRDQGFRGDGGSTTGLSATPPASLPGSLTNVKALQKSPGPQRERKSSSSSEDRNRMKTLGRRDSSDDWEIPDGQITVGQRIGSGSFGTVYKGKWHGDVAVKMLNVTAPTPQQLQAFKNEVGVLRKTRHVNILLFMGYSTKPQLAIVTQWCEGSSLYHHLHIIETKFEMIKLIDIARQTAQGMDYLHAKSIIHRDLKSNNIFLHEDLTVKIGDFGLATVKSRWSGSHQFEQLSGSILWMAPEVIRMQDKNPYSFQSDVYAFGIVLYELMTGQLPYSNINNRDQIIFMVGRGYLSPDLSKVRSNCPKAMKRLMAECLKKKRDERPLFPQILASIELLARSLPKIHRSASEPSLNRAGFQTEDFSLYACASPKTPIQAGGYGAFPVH
From the text: Fluorescence Anisotropy Kinase Binding Assay
The concentration of kinase enzyme should preferably be ≧1×Kf. The concentration of fluorescent ligand required will depend on the instrumentation used, and the fluorescent and physicochemical properties. The concentration used must be lower than the concentration of kinase enzyme, and preferably less than half the kinase enzyme concentration. A typical protocol is:
All compounds are serially diluted in DMSO, then by a one step dilution into buffer of comparison, 50 mM HEPES, […] pH7.5, 1 mM CHAPS, 10 mM MgCL2, for the assay.
B-Raf Enzyme concentration: 1 nM
Fluorescent ligand concentration: 0.5 nM
Test compound concentration: 0.5 nM -100 uM
Components incubated in 10 ul final volume in LJL HE 384 type B black microtitre plate until equilibrium reached (Over 3 h, up to 30 h)
Fluorescence anisotropy read in an LJL Acquest.
• Ki=dissociation constant for inhibitor binding • Kf=dissociation constant for fluorescent ligand binding
The fluorescent ligand is the following compound:
which is derived from 5-[2-(4-aminomethylphenyl)-5-pyridin-4-yl]-1H-imidazol4-yl]-2-chlorophenol and rhodamine green.

[3] = test system: human colon carcinoma (Colo 201) cells; experiment: XTT 72 hr Growth Inhibition (Assay 3), Colo201; type: cell-based; conditions: Colorectal cancer, B-Raf ND, Ras ND
Protocol: as §1, §2, §3

human melanoma A375P = experiment: Methylene Blue Growth Inhibition Assay (Assay 2), A375P; type: cell-based; conditions: B-Raf V599E, Ras wt

IC50 [2]: 0.11 µM
IC50 (human melanoma SKMEL3): 1 µM
IC50 (human melanoma SKMEL2): 0.22 µM
Kd (B-Raf): 1 nM
IC50 [3]: 0.5 µM
IC50 (human melanoma A375P): 0.081 µM
Structure (SMILES): CN(C)CCOc1ccc(-c2cc(-c3ccc4c(c3)CCC4=NO)c(-c3ccncc3)o2)cc1 [Example 4, 5-{5-[4-(2-Dimethylaminoethoxy)phenyl]-2-pyridin-4yl-furan-3-yl}indan-1-one oxime]
IC50 [1]: 7.1 µM
